In ChEMBL document CHEMBL5241082, “Discovery and Characterization of Benzimidazole Derivative XY123 as a Potent, Selective, and Orally Available RORγ Inverse Agonist” (J Med Chem, 2021):

Columns and labels:
in vivo = conditions: Sprague-Dawley, rat, iv, 5 mg/kg
in vitro [1] = conditions: rat, liver microsomes
in vitro [2] = conditions: human, liver microsomes

clearance at 24 h (in vivo) [mL/min/kg]	half-life at 1 µM (in vitro [1]) [h]	half-life at 1 µM (in vitro [2]) [h]	Structure (SMILES)
3	0.373	0.0505	CCS(=O)(=O)c1ccc(CC(=O)Nc2ccc(-c3nc4ccc(C(F)(F)F)cc4n3[C@H](C)c3ccc(F)cc3)cc2)cc1
3.33	> 2	> 2	CCS(=O)(=O)c1ccc(CC(=O)Nc2ccc(-c3nc4ccc(C(F)(F)F)cc4n3[C@@H](C)c3ccc(F)cc3)cc2)cc1
–	> 2	> 2	O=C(c1ccc(F)cc1)C1CCN(CCn2c(=O)[nH]c3ccccc3c2=O)CC1 [KETANSERIN]
